{
  "source": "patent US20250026769A1",
  "about": "“PAPD5 INHIBITORS AND METHODS OF USE THEREOF” (The Children's Medical Center Corporation, priority 2021, published 2025)",
  "data": [
    {"target": "T1, rPAPD5 (Homo sapiens, UniProt Q8NDF8)", "T1 construct": "made in house", "T1 sequence (Q8NDF8 68-698 isoform Q8NDF8-5 limits assumed)": "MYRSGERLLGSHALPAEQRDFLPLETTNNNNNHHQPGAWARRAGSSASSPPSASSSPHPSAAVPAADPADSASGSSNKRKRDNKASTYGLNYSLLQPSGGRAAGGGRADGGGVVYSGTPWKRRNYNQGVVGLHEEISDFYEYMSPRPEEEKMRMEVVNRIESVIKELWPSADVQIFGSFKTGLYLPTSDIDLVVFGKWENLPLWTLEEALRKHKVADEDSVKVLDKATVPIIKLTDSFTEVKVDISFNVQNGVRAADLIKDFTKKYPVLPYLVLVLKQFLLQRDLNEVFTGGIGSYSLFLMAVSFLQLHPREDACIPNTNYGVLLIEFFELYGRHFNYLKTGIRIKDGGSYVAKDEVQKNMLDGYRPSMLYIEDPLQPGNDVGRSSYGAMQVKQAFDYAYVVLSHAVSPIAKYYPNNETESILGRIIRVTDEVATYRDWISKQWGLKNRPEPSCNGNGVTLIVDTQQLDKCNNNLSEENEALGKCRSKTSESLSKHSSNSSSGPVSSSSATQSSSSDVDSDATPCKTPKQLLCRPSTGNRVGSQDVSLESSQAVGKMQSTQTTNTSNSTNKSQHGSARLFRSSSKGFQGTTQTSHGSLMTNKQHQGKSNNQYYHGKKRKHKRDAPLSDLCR", "experiment": "differential scanning fluorimetry (DSF) binding and stabilization of rPAPD5", "details": "10 μM test compound; shift vs DMSO control; read-out: ΔTm (Table 2, starred: the compound was tested at 10 μM)", "experimental": "(§1) Binding and stabilization of rPAPD5 by test compounds was determined using differential scanning fluorimetry (DSF). DSF assays were performed to determine protein melting temperature using an indicator dye SYPRO orange (Thermo Fisher Scientific, S6651) diluted 1:5000 in […] of buffer containing […], […] (Jena Biosciences), 25 mM Tris-HCl, 5 mM MgCl2, 50 mM KCl. […] DMSO was used as a negative control. Each curve was an average of three measurements and Thermal Shift software (Thermo Fisher Scientific, 4466038) was used for analysis. […] The change in melting temperature (ΔTm) is in reference to the DMSO control. Referring to Table 2, “+” refers to ΔTm values below 1° C., “++” refers to ΔTm values from 1 to 5° C., and “+++” refers to ΔTm values above 5° C.", "units": {"ΔTm at 10 µM": "°C"}, "values": [
      {"smiles": "Cc1cc(OCc2ccccc2)ccc1-c1ccc2ncc(S(=O)(=O)N3CCOCC3)c(Nc3ccccc3C(=O)O)c2c1", "note": "[Compound 176A, 2-[[6-(4-benzyloxy-2-methyl-phenyl)-3-morpholinosulfonyl-4-quinolyl]amino]benzoic acid]", "ΔTm at 10 µM": "< 1"}
    ]},
    {"target": "T1, rPAPD5", "experiment": "differential scanning fluorimetry (DSF) binding and stabilization of rPAPD5", "details": "100 μM test compound; shift vs DMSO control; read-out: ΔTm at 100 μM", "experimental": "as §1", "units": {"ΔTm at 100 µM": "°C"}, "values": [
      {"smiles": "O=C1Cc2ccc(-c3ccc4ncc(S(=O)(=O)N5CCOCC5)c(Nc5ccccc5C(=O)O)c4c3)cc2N1", "note": "[Compound 170A, 2-[[3-morpholinosulfonyl-6-(2-oxoindolin-6-yl)-4-quinolyl]amino]benzoic acid]", "ΔTm at 100 µM": "1 to 5"},
      {"smiles": "CNc1ncc2cc(-c3ccc4ncc(S(=O)(=O)N5CCOCC5)c(Nc5ccccc5C(=O)O)c4c3)ccc2n1", "note": "[Compound 171A, 2-[[6-[2-(methylamino)quinazolin-6-yl]-3-morpholinosulfonyl-4-quinolyl]amino]benzoic acid]", "ΔTm at 100 µM": "1 to 5"},
      {"smiles": "O=C(O)c1ccccc1Nc1c(S(=O)(=O)N2CCOCC2)cnc2ccc(-c3ccc(S(=O)(=O)N4CCOCC4)cc3)cc12", "note": "[Compound 172A, 2-[[3-morpholinosulfonyl-6-(4-morpholinosulfonylphenyl)-4-quinolyl]amino]benzoic acid]", "ΔTm at 100 µM": "1 to 5"},
      {"smiles": "O=C(O)c1ccc(-c2ccc3ncc(S(=O)(=O)N4CCOCC4)c(Nc4ccccc4C(=O)O)c3c2)cc1", "note": "[Compound 173A, 2-[[6-(4-carboxyphenyl)-3-morpholinosulfonyl-4-quinolyl]amino]benzoic acid]", "ΔTm at 100 µM": "1 to 5"},
      {"smiles": "CCN(CC)C(=O)c1ccc(-c2ccc3ncc(S(=O)(=O)N4CCOCC4)c(Nc4ccccc4C(=O)O)c3c2)cc1", "note": "[Compound 174A, 2-[[6-[4-(diethylcarbamoyl)phenyl]-3-morpholinosulfonyl-4-quinolyl]amino]benzoic acid]", "ΔTm at 100 µM": "< 1"},
      {"smiles": "O=C(O)c1ccccc1Nc1c(S(=O)(=O)N2CCOCC2)cnc2ccc(-c3ccc4c(c3)OCO4)cc12", "note": "[Compound 175A, 2-[[6-(1,3-benzodioxol-5-yl)-3-morpholinosulfonyl-4-quinolyl]amino]benzoic acid]", "ΔTm at 100 µM": "> 5"},
      {"smiles": "Cn1ncc2ccc(-c3ccc4ncc(S(=O)(=O)N5CCOCC5)c(Nc5ccccc5C(=O)O)c4c3)cc21", "note": "[Compound 177A, 2-[[6-(1-methylindazol-6-yl)-3-morpholinosulfonyl-4-quinolyl]amino]benzoic acid]", "ΔTm at 100 µM": "1 to 5"},
      {"smiles": "O=C(O)c1ccccc1Nc1c(S(=O)(=O)N2CCOCC2)cnc2ccc(-c3ccc(-n4cccn4)cc3)cc12", "note": "[Compound 178A, 2-[[3-morpholinosulfonyl-6-(4-pyrazol-1-ylphenyl)-4-quinolyl]amino]benzoic acid]", "ΔTm at 100 µM": "1 to 5"},
      {"smiles": "CS(=O)(=O)Nc1ccc(-c2ccc3ncc(S(=O)(=O)N4CCOCC4)c(Nc4ccccc4C(=O)O)c3c2)cc1", "note": "[Compound 179A, 2-[[6-[4-(methanesulfonamido)phenyl]-3-morpholinosulfonyl-4-quinolyl]amino]benzoic acid]", "ΔTm at 100 µM": "1 to 5"},
      {"smiles": "CN1CCN(c2ccc(-c3ccc4ncc(S(=O)(=O)N5CCOCC5)c(Nc5ccccc5C(=O)O)c4c3)cc2)CC1", "note": "[Compound 180A, 2-[[6-[4-(4-methylpiperazin-1-yl)phenyl]-3-morpholinosulfonyl-4-quinolyl]amino]benzoic acid]", "ΔTm at 100 µM": "< 1"},
      {"smiles": "O=C(O)c1ccccc1Nc1c(S(=O)(=O)N2CCOCC2)cnc2ccc(-c3ccc4[nH]cnc4c3)cc12", "note": "[Compound 182A, 2-[[6-(1H-benzimidazol-5-yl)-3-morpholinosulfonyl-4-quinolyl]amino]benzoic acid]", "ΔTm at 100 µM": "1 to 5"},
      {"smiles": "O=C(O)c1ccccc1Nc1c(NC2CCOCC2)cnc2ccc(Cl)cc12", "note": "[Compound 184A, 2-[[6-chloro-3-(tetrahydropyran-4-ylamino)-4-quinolyl]amino]benzoic acid]", "ΔTm at 100 µM": "> 5"},
      {"smiles": "O=C(O)c1ccccc1Nc1c(NC2CCNCC2)cnc2ccc(Cl)cc12", "note": "[Compound 186A, 2-[[6-chloro-3-(4-piperidylamino)-4-quinolyl]amino]benzoic acid]", "ΔTm at 100 µM": "1 to 5"},
      {"smiles": "O=C(O)c1ccccc1Nc1c(NC2CCS(=O)(=O)CC2)cnc2ccc(Cl)cc12", "note": "[Compound 188A, 2-[[6-chloro-3-[(1,1-dioxothian-4-yl)amino]-4-quinolyl]amino]benzoic acid]", "ΔTm at 100 µM": "> 5"},
      {"smiles": "O=C(O)c1ccccc1Nc1c(Nc2cncnc2)cnc2ccc(Cl)cc12", "note": "[Compound 191A, 2-[[6-chloro-3-(pyrimidin-5-ylamino)-4-quinolyl]amino]benzoic acid]", "ΔTm at 100 µM": "> 5"},
      {"smiles": "O=C(O)c1ccccc1Nc1c(C2CCOCC2)cnc2c1CCCC2", "note": "[Compound 204A-BP, 2-[(3-tetrahydropyran-4-yl-5,6,7,8-tetrahydroquinolin-4-yl)amino]benzoic acid]", "ΔTm at 100 µM": "> 5"},
      {"smiles": "O=C(O)c1ccccc1Nc1c(C2CCC(F)(F)CC2)cnc2ccc(Cl)cc12", "note": "[Compound 205A, 2-[[6-chloro-3-(4,4-difluorocyclohexyl)-4-quinolyl]amino]benzoic acid]", "ΔTm at 100 µM": "> 5"},
      {"smiles": "O=C(O)c1ccccc1Nc1c(C2CCNCC2)cnc2ccc(Cl)cc12", "note": "[Compound 206A, 2-[[6-chloro-3-(4-piperidyl)-4-quinolyl]amino]benzoic acid]", "ΔTm at 100 µM": "> 5"},
      {"smiles": "O=C(O)c1ccccc1Nc1c(C2=CCNCC2)cnc2ccc(Cl)cc12", "note": "[Compound 206A-INT, 2-[[6-chloro-3-(1,2,3,6-tetrahydropyridin-4-yl)-4-quinolyl]amino]benzoic acid]", "ΔTm at 100 µM": "> 5"},
      {"smiles": "CN1CCC(c2cnc3ccc(Cl)cc3c2Nc2ccccc2C(=O)O)CC1", "note": "[Compound 207A, 2-[[6-chloro-3-(1-methyl-4-piperidyl)-4-quinolyl]amino]benzoic acid]", "ΔTm at 100 µM": "> 5"},
      {"smiles": "CN1CC=C(c2cnc3ccc(Cl)cc3c2Nc2ccccc2C(=O)O)CC1", "note": "[Compound 207A-INT, 2-[[6-chloro-3-(1-methyl-3,6-dihydro-2H-pyridin-4-yl)-4-quinolyl]amino]benzoic acid]", "ΔTm at 100 µM": "> 5"},
      {"smiles": "O=C(O)c1ccccc1Nc1c(C2CCS(=O)(=O)CC2)cnc2ccc(Cl)cc12", "note": "[Compound 208A, 2-[[6-chloro-3-(1,1-dioxothian-4-yl)-4-quinolyl]amino]benzoic acid]", "ΔTm at 100 µM": "> 5"},
      {"smiles": "O=C(O)c1ccccc1Nc1c(C2=CCS(=O)(=O)CC2)cnc2ccc(Cl)cc12", "note": "[Compound 208A-INT, 2-[[6-chloro-3-(1,1-dioxo-3,6-dihydro-2H-thiopyran-4-yl)-4-quinolyl]amino]benzoic acid]", "ΔTm at 100 µM": "1 to 5"},
      {"smiles": "O=C(O)c1ccccc1Nc1c(-c2ccncc2)cnc2ccc(Cl)cc12", "note": "[Compound 209A, 2-[[6-chloro-3-(4-pyridyl)-4-quinolyl]amino]benzoic acid]", "ΔTm at 100 µM": "> 5"},
      {"smiles": "O=C(O)c1ccccc1Nc1c(-c2nccs2)cnc2ccc(Cl)cc12", "note": "[Compound 211A, 2-[(6-chloro-3-thiazol-2-yl-4-quinolyl)amino]benzoic acid]", "ΔTm at 100 µM": "> 5"},
      {"smiles": "O=C(O)c1ccccc1Nc1c(-c2cnoc2)cnc2ccc(Cl)cc12", "note": "[Compound 212A, 2-[(6-chloro-3-isoxazol-4-yl-4-quinolyl)amino]benzoic acid]", "ΔTm at 100 µM": "1 to 5"},
      {"smiles": "O=C(O)c1ccccc1Nc1c(S(=O)(=O)NC2CCOCC2)cnc2ccc(Cl)cc12", "note": "[Compound 216A, 2-[[6-chloro-3-(tetrahydropyran-4-ylsulfamoyl)-4-quinolyl]amino]benzoic acid]", "ΔTm at 100 µM": "> 5"},
      {"smiles": "O=C(O)c1ccccc1Nc1c(S(=O)(=O)NC2CCC(F)(F)CC2)cnc2ccc(Cl)cc12", "note": "[Compound 217A, 2-[[6-chloro-3-[(4,4-difluorocyclohexyl)sulfamoyl]-4-quinolyl]amino]benzoic acid]", "ΔTm at 100 µM": "> 5"},
      {"smiles": "CN1CCC(NS(=O)(=O)c2cnc3ccc(Cl)cc3c2Nc2ccccc2C(=O)O)CC1", "note": "[Compound 219A, 2-[[6-chloro-3-[(1-methyl-4-piperidyl)sulfamoyl]-4-quinolyl]amino]benzoic acid]", "ΔTm at 100 µM": "1 to 5"},
      {"smiles": "O=C(O)c1ccccc1Nc1c(S(=O)(=O)N2CCS(=O)(=O)CC2)cnc2ccc(Cl)cc12", "note": "[Compound 220A, 2-[[6-chloro-3-[(1,1-dioxo-1,4-thiazinan-4-yl)sulfonyl]-4-quinolyl]amino]benzoic acid]", "ΔTm at 100 µM": "> 5"},
      {"smiles": "O=C(O)c1ccccc1Nc1c(S(=O)(=O)Nc2ccncc2)cnc2ccc(Cl)cc12", "note": "[Compound 221A, 2-[[6-chloro-3-(4-pyridylsulfamoyl)-4-quinolyl]amino]benzoic acid]", "ΔTm at 100 µM": "> 5"},
      {"smiles": "NS(=O)(=O)c1ccc(NS(=O)(=O)c2cnc3ccc(Cl)cc3c2Nc2ccccc2C(=O)O)cc1", "note": "[Compound 231A, 2-[[6-chloro-3-[(4-sulfamoylphenyl)sulfamoyl]-4-quinolyl]amino]benzoic acid]", "ΔTm at 100 µM": "> 5"},
      {"smiles": "O=C(O)c1ccccc1Nc1c(Br)cnc2ccc(Cl)cc12", "note": "[Compound 232A, 2-[(3-bromo-6-chloro-4-quinolyl)amino]benzoic acid]", "ΔTm at 100 µM": "> 5"},
      {"smiles": "O=C(O)c1ccccc1Nc1c(S(=O)(=O)N2CCOCC2)cnc2ccc(C(F)(F)F)cc12", "note": "[Compound 234A, 2-[[3-morpholinosulfonyl-6-(trifluoromethyl)-4-quinolyl]amino]benzoic acid]", "ΔTm at 100 µM": "> 5"},
      {"smiles": "CC(=O)NS(=O)(=O)c1ccc2ncc(S(=O)(=O)N3CCOCC3)c(Nc3ccccc3C(=O)O)c2c1", "note": "[Compound 235A, 2-[[6-(acetylsulfamoyl)-3-morpholinosulfonyl-4-quinolyl]amino]benzoic acid]", "ΔTm at 100 µM": "1 to 5"},
      {"smiles": "O=C(O)c1ccccc1Nc1c(S(=O)(=O)N2CCOCC2)cnc2ccc(OC(F)F)cc12", "note": "[Compound 236A, 2-[[6-(difluoromethoxy)-3-morpholinosulfonyl-4-quinolyl]amino]benzoic acid]", "ΔTm at 100 µM": "> 5"}
    ]}
  ]
}
